Assays:
[1] = Plasma regadenoson concentrations in conscious dogs; type: in vivo, dog
Experimental: (§1) Each dog received an IV injection of 5 μg/kg of regadenoson. […] LVSP, LV dP/dtMax, MAP, HR and CBF were recorded continuously. Blood samples were taken from the left atrial catheter at 1, 3, 5, 15, 30, 45 and 60 min following injections of regadenoson.

normal subjects = experiment: PET myocardial blood flow / coronary flow reserve after regadenoson with and without caffeine, crossover study; type: in vivo, human; details: for log CFR±SE: n=40
Experimental: 15O water was used as the radionuclide in the PET scans. There was a 1- to 14-day washout period between dosing days. Blood samples and measures of safety were collected until 120 minutes after study drug administration.
The CVT tracking number for the placebo capsules was 1341 (Leg 2).
The primary efficacy measure was the log coronary flow reserve (CFR), which is the ratio of stress MBF after regadenoson dosing to the resting MBF.
The data were also to be analyzed using Wilcoxon's rank-sum test.

conscious dogs [2] = experiment: Effects of regadenoson on HR and CBF before and after metoprolol in conscious dogs; type: in vivo, dog; details: for duration of two-fold increase in CBF: in the presence of metoprolol 1.5 mg/kg
Experimental: Five mongrel dogs were chronically instrumented for measurements of systemic hemodynamics and coronary blood flow (CBF). The effects of regadenoson (1, 2.5 and 5 μg/kg, IV) on HR and CBF were assessed before and after administration of the β1-adrenergic receptor blocker metoprolol (1.5 mg/kg). Values of peak CBF and the duration of the two-fold increase in CBF above baseline were used to assess Reg-induced coronary vasodilation.

[3] = Plasma caffeine concentrations in conscious dogs; type: in vivo; details: dog, intravenous, 10 mg/kg
Experimental: (§2) Three experiments were performed on each dog in the group.
as §1

conscious dogs [4] = experiment: Effects of caffeine alone on MAP and HR in conscious dogs (Part I); type: in vivo, dog
Experimental: Sixteen chronically instrumented male mongrel dogs weighing from 22-30 kg were used in the study. The animal protocol was approved by the Institutional Animal Care and Use Committee of New York Medical College and conforms to the Guide for the Care and Use of Laboratory Animal by the United States National Institutes of Health.
Dogs were sedated with acepromazine (0.3 mg/kg, IM) and anesthetized with pentobarbital sodium (25 mg/kg, IV). After intubation, dogs were artificially ventilated with room air. A thoracotomy was made in the fifth intercostal space using sterile techniques. A Tygon catheter (Cardiovascular Instruments, Wakefield, Mass.) was inserted into the descending thoracic aorta and another one was inserted into the left atrium. In 9 dogs, an ultrasound flow transducer (Transonic Systems, Ithaca, N.Y.) was placed around the left circumflex coronary artery. A solid-state pressure gauge (P6.5, Konisberg Instruments, Pasadena, Calif.) was placed into the left ventricle through the apex. The chest was closed in layers. The catheters and wires were tunneled subcutaneously and externalized through the skin at the back of the dog's neck. Dogs were allowed to recover from the surgery before experiments were performed, and were trained to lie on a table.
Phasic arterial pressure was measured by connecting the aortic catheter to a strain gauge transducer (P23 ID, LDS Test and Measurement, Valley View, Ohio). Left ventricular pressures were measured by the solid pressure gauge. CBF (mL/min) was measured from an ultrasound flow transducer using a Transonic flowmeter (T206, Transonic Systems, Ithaca, N.Y.). Two indices were used to describe the regadenoson-induced coronary vasodilation: 1) the maximum increase in CBF and 2) the duration of the 2-fold increase in CBF (the period of time that CBF was elevated to a level ≧2-fold of baseline CBF). All pressure and flow data were acquired and analyzed using a Ponemah System (Version 3.30 or 4.20, LDS Test and Measurement, Valley View, Ohio). MAP and HR were calculated from phasic blood pressure, and LV dP/dtMax was calculated from the left ventricular systolic pressure.
On the day of an experiment, a dog was placed on a table, where it lay quietly during the experiment. A catheter was inserted into a peripheral vein in the leg and attached to an infusion line to administer drugs without disturbing the dog. The experiment was begun after MAP, HR and CBF were stable.
as §2
The statistical significance of a difference between the value of a parameter at baseline and at the indicated time point after drug administration was determined using a One-Way Repeated Measures ANOVA followed by Tukey's Test. […] Results with p<0.05 were considered to be significant. A computer-based software package (SigmaStat 2.03) was used for statistical analysis. All data are presented as Mean±SEM.

[5] = regadenoson 400 μg IV after placebo capsule
[6] = Reg 1 μg/kg IV, before metoprolol
[7] = Reg 2.5 μg/kg IV, before metoprolol
[8] = Reg 5 μg/kg IV, before metoprolol
[9] = caffeine 200 mg po, regadenoson 400 μg IV
[10] = regadenoson 400 μg IV after caffeine 200 mg po

## CNC(=O)c1cnn(-c2nc(N)c3ncn([C@@H]4O[C@H](CO)[C@@H](O)[C@H]4O)c3n2)c1 [Regadenoson, (1-{9-[(4S,2R,3R,5R)-3,4-dihydroxy-5-(hydroxymethyl)oxolan-2-yl]-6-aminopurin-2-yl}pyrazol-4-yl)-N-methylcarboxamide]
[1]; caffeine at 1, 2, 4 or 10 mg/kg
  pharmacokinetic profiles of regadenoson in presence of caffeine: not changed
[1]; regadenoson 5 μg/kg IV, absence of caffeine
  time of peak plasma regadenoson concentration: ~1 min
Normal subjects; [5]
  CFR (stress/rest): 2.97±0.16
  log CFR±SE: 1.03±0.06
Conscious dogs [2]; Reg 1 μg/kg IV, after metoprolol 1.5 mg/kg IV
  increase in HR (ΔHR): 19±4 bpm
Conscious dogs [2]; [6]
  duration of 2-fold increase in CBF: 93 ± 22 s
  increase in HR (ΔHR): 49±8 bpm
  increase in peak CBF (ΔCBF): 129 ± 10 mL/min
Conscious dogs [2]; Reg 1 μg/kg IV
  duration of two-fold increase in CBF: 71 ± 34 s
Conscious dogs [2]; Reg 1 μg/kg IV, in the presence of metoprolol 1.5 mg/kg (NS)
  increase in peak CBF (ΔCBF): 112 ± 5 mL/min
Conscious dogs [2]; Reg 2.5 μg/kg IV, after metoprolol 1.5 mg/kg IV
  increase in HR (ΔHR): 28±3 bpm
Conscious dogs [2]; [7]
  duration of 2-fold increase in CBF: 316 ± 57 s
  increase in HR (ΔHR): 63±5 bpm
  increase in peak CBF (ΔCBF): 149 ± 7 mL/min
Conscious dogs [2]; Reg 2.5 μg/kg IV
  duration of two-fold increase in CBF: 215 ± 45 s
Conscious dogs [2]; Reg 2.5 μg/kg IV, in the presence of metoprolol 1.5 mg/kg (NS)
  increase in peak CBF (ΔCBF): 136 ± 16 mL/min
Conscious dogs [2]; Reg 5 μg/kg IV, after metoprolol 1.5 mg/kg IV
  increase in HR (ΔHR): 39±5 bpm
Conscious dogs [2]; [8]
  duration of 2-fold increase in CBF: 593 ± 86 s
  increase in HR (ΔHR): 71±7 bpm
  increase in peak CBF (ΔCBF): 174 ± 10 mL/min
Conscious dogs [2]; Reg 5 μg/kg IV
  duration of two-fold increase in CBF: 364 ± 86 s
Conscious dogs [2]; Reg 5 μg/kg IV, in the presence of metoprolol 1.5 mg/kg (p<0.05)
  increase in peak CBF (ΔCBF): 138 ± 9 mL/min

## Cn1c(=O)c2c(ncn2C)n(C)c1=O [Caffeine, caffeine]
Normal subjects; caffeine 200 mg po vs placebo, regadenoson 400 μg IV
  change in CFR (95% confidence): < 20%
Normal subjects; [9]
  exponentiated lower limit of 90% confidence interval for log CFR (caffeine versus placebo difference): 0.80
  exponentiated lower limit of 95% confidence interval for log CFR (caffeine versus placebo difference): 0.78
  exponentiated upper limit of 90% confidence interval for log CFR (caffeine versus placebo difference): 1.06
  exponentiated upper limit of 95% confidence interval for log CFR (caffeine versus placebo difference): 1.08
  interaction of caffeine with regadenoson on CFR by sex: no significant interaction
Normal subjects; [10]
  CFR (stress/rest): 2.75±0.16
  log CFR±SE: 0.95±0.06
[3]
  concentration at 45 min: 52 ± 2 µM
Conscious dogs [4]; caffeine 2 mg/kg IV
  changes in MAP and HR: no significant changes
Conscious dogs [4]; caffeine 2 mg/kg IV, 2.5 min
  HR: 95 ± 5 beats/min
Conscious dogs [4]; caffeine 2 mg/kg IV, 5 min
  HR: 91 ± 5 beats/min
Conscious dogs [4]; caffeine 2 mg/kg IV, 15 min
  HR: 85 ± 6 beats/min
Conscious dogs [4]; caffeine 2 mg/kg IV, 30 min
  HR: 81 ± 7 beats/min
Conscious dogs [4]; caffeine 2 mg/kg IV, 60 min
  HR: 90 ± 9 beats/min
Conscious dogs [4]; caffeine 2 mg/kg IV, 90 min
  HR: 87 ± 5 beats/min
Conscious dogs [4]; caffeine 2 mg/kg IV, 120 min
  HR: 88 ± 6 beats/min
Conscious dogs [4]; caffeine 4 mg/kg IV
  change in HR: without a significant change
Conscious dogs [4]; caffeine 4 mg/kg IV, 2.5 min
  HR: 104 ± 5 beats/min
Conscious dogs [4]; caffeine 4 mg/kg IV, 5 min
  HR: 102 ± 4 beats/min
Conscious dogs [4]; caffeine 4 mg/kg IV, 15 min
  HR: 88 ± 6 beats/min
  MAP: 99 ± 4 mm Hg
Conscious dogs [4]; caffeine 4 mg/kg IV, 30 min
  HR: 90 ± 7 beats/min
Conscious dogs [4]; caffeine 4 mg/kg IV, 60 min
  HR: 85 ± 7 beats/min
Conscious dogs [4]; caffeine 4 mg/kg IV, 90 min
  HR: 90 ± 7 beats/min
Conscious dogs [4]; caffeine 4 mg/kg IV, 120 min
  HR: 86 ± 5 beats/min
Conscious dogs [4]; caffeine 4 mg/kg IV, at both 2.5 and 5 min after injection
  increase in MAP: ~12 mm Hg
Conscious dogs [4]; caffeine 10 mg/kg IV, 2.5 min
  HR: 100 ± 4 beats/min
Conscious dogs [4]; caffeine 10 mg/kg IV, 5 min
  HR: 101 ± 4 beats/min
Conscious dogs [4]; caffeine 10 mg/kg IV, 15 min
  HR: 93 ± 5 beats/min
Conscious dogs [4]; caffeine 10 mg/kg IV, 30 min
  HR: 87 ± 5 beats/min
  MAP: 101 ± 3 mm Hg
Conscious dogs [4]; caffeine 10 mg/kg IV, 60 min
  HR: 83 ± 2 beats/min
Conscious dogs [4]; caffeine 10 mg/kg IV, 90 min
  HR: 80 ± 5 beats/min
Conscious dogs [4]; caffeine 10 mg/kg IV, 120 min
  HR: 80 ± 4 beats/min
  MAP: 102 ± 2 mm Hg
